Measured values published in patent publication US20130131062A1, “PYRIDAZINONES AND FURAN-CONTAINING COMPOUNDS” (priority 2006, published 2013).
pIC50: −log10 of the molar value. Where two headings read alike, the source gives them in different places. Blank lines part the entries; values can stand above or below the compound they belong to.

Legend:
Type in all cases: cell-based, human
[1] = system: 15 non small cell lung cancer lines representing various EGFR and KRAS mutations; experiment: Dose response studies against 15 NSCLC lines (alamar blue)
Experimental: Dose response studies against 34 compounds from the pyridazinone and phenylfuran-carboxamide class were conducted. […] In addition, Tarceva was included in these dose response studies.
The dose response studies were done with the following standard procedure. First, the cells were counted and dispensed at 250 cells/well into 384-well microplates with compound. The cells were incubated for 48 hours at 37 C to complete treatment, and then alamar blue was added for an additional 48 hours. Finally, alamar blue reduction was measured and the data was loaded into ORIS, our data screening acquisition platform.

[2] = system: H1650; experiment: Non Small Cell Lung Cancer Proliferation Assay (Alamar Blue); conditions: Homo sapiens, NCI-H1650
Experimental: (§1) Non Small Cell Lung Cancer cell lines are grown and maintained in Corning 175 cm2 flasks in RPMI 1640 media supplemented with 10% FBS, 1% antibiotic solution, 1% additional glutamine and pyruvate. These cells have a doubling time of 1-2 days. All cell types are adherent and grow in colonies. The cells should be kept at a density between 50,000 cells/mL-500,000 cells/mL to provide for optimum growth and adequate nutrition. The cell line should be maintained at 37° C. in a humidified atmosphere with 5% CO2 in a sterile cell culture incubator.
(§2) To perform the assay, the Non Small Cell Lung Cancer lines are diluted in media and plated into 384 well microplates at a final density of 250 cells in 45 μL. To ensure consistency and minimal pipetting error, the cells are plated using the Multidrop 384 with the following settings: Rocker Switch set at 384, Volume 45 and Column 24.
(§3) Low Controls for this assay are made by treating Non Small Cell Lung Cancer cells with 5 ul of staurosporine at 250 uM in 10% DMSO and 1% SDS. [Final concentration in this assay is 25 uM staurosporine in 1% DMSO and 0.1% SDS.]
(§4) High Controls for this assay are made by treating Non Small Cell Lung Cancer cells with 5 ul of 10% DMSO. [Final concentration in this assay is 1% DMSO].
(§5) The remaining wells of the 384 microplate may be treated with different compounds depending on the study. Important Note: All compounds for testing in this assay should be done at the final concentration of 1% DMSO.
(§6) After addition, the cells are placed in cell culture incubator at 37° C. for 48 hours for complete treatment.
(§7) After drug treatment, cytotoxicity is measured by Alamar Blue reduction. 5 μL of Alamar Blue is added to the 384 microplates using the Flexdrop.
(§8) The cells are incubated for 48 hours at 37° C. to complete the Alamar Blue reduction.
(§9) The final step in the assay is to measure the amount of Alamar Blue reduction. […] The Alamar Blue fluorescence is measured at an excitation of 530 nm and emission of 590 nm.
(§10) For the NSCLC project, the cell based assay was screened against a small molecule library of approximately 200,000 compounds. The compound library is stored in our automated robotic freezer (Biophile) at −20° C. in 100% DMSO. Compound freeze and thaw cycles are kept to a minimum. Compounds for use are diluted into the appropriate concentration and plated into 384 well microplates using our custom built low volume 384-well head tool (TPS 384, Apricot Designs Inc., CA, USA). This assay was performed on a fully automated linear track robotic platform (CRS F3 Robot System, Thermo Electron Corp., Ontario, Canada) utilizing several integrated peripherals for plate handling, liquid dispensing, and readout detection. First, non-small cell lung cancer cell lines are dispensed into 384 well microplates (Corning #3712 Tissue Culture Treated Plate, Corning, N.Y., USA) with 5 μL of test compounds at 100 uM in 10% DMSO for screening studies or 1 mM in 10% DMSO to 50 nM in 10% DMSO for dose response studies. The microplates are then placed at 37° C. for 48 hours to complete treatment of cells with compounds. Next, 5 ul of alamar blue was added using a liquid dispenser (FlexDrop Precision Dispenser, Perkin Elmer, Mass., USA) and incubated for 48 hours at 37° C. The alamar blue prompt fluorescence was measured on Victor V (Victor^3 V, Perkin Elmer, Mass., USA) and output data files were loaded into ORIS (Oncology Research Informatics System, MSKCC, NY, USA), a screening data acquisition and analysis platform.

[3] = system: H1975; experiment: as above; conditions: for inhibition at 10 µM: Homo sapiens, NCI-H1975
Experimental: as §1, §2, §3, §4, §5, §6, §7, §8, §9, §10

[4] = system: H2030; experiment: as above; conditions: for inhibition at 10 µM: Homo sapiens, NCI-H2030
Experimental: (§11) These cells have a doubling time of 1-2 days. All cell types are adherent and grow in colonies. The cells should be kept at a density between 50,000 cells/mL-500,000 cells/mL to provide for optimum growth and adequate nutrition. The cell line should be maintained at 37° C. in a humidified atmosphere with 5% CO2 in a sterile cell culture incubator.
(§12) To perform the assay, the Non Small Cell Lung Cancer lines are diluted in media and plated into 384 well microplates at a final density of 250 cells in 45 μL.
as §4
(§13) Important Note: All compounds for testing in this assay should be done at the final concentration of 1% DMSO.
as §6
(§14) After drug treatment, cytotoxicity is measured by Alamar Blue reduction.
as §8, §9
as §10, with “Compounds for use are diluted into the appropriate concentration and plated into 384 well microplates using our custom built low volume 384-well head tool (TPS 384, Apricot Designs Inc., CA, USA).” left out, “First, non-small cell lung cancer cell lines are dispensed into 384 well microplates (Corning #3712 Tissue Culture Treated Plate, Corning, N.Y., USA) with 5 μL of test compounds at 100 uM in 10% DMSO for screening studies or 1 mM in 10% DMSO to 50 nM in 10% DMSO for dose response studies.” left out

[5] = system: H3255; experiment: as above; conditions: Homo sapiens, NCI-H3255
Experimental: as §11, §12, §4, §13, §6, §14, §8, §9
as §10, with “Compounds for use are diluted into the appropriate concentration and plated into 384 well microplates using our custom built low volume 384-well head tool (TPS 384, Apricot Designs Inc., CA, USA).” left out, “First, non-small cell lung cancer cell lines are dispensed into 384 well microplates (Corning #3712 Tissue Culture Treated Plate, Corning, N.Y., USA) with 5 μL of test compounds at 100 uM in 10% DMSO for screening studies or 1 mM in 10% DMSO to 50 nM in 10% DMSO for dose response studies.” left out

[6] = HPL1D (SV40-immortalized human lung epithelian cells, EGFR WT, KRAS WT), 12 point doubling dilution 10 uM to 5 nM, alamar blue, read-out: IC50 HPL1D
[7] = Homo sapiens, H23 (EGFR WT, KRAS G12C), 12 point doubling dilution 10 uM to 5 nM, alamar blue, read-out: IC50 H23
[8] = Homo sapiens, PC9 (EGFR DclE746-A750, KRAS WT), 12 point doubling dilution 10 uM to 5 nM, alamar blue, read-out: IC50 PC9
[9] = confirmation, percentage inhibition, 10 μM compound in 1% DMSO (v/v)

SMILES: O=c1c(Br)c(Br)cnn1-c1ccccc1 [compound 257015]
pIC50 [1, 6]: 6.52

pIC50 [1, 7]: 6.49
SMILES: Cc1ccc(-n2ncc(Cl)c(Cl)c2=O)cc1 [compound 257016]

pIC50 [1, 8]: < 5.00
SMILES: Cc1cc(-n2ncc(Cl)c(Cl)c2=O)ccc1Br [compound 267064]

pIC50 [1, 7]: < 5.00
pIC50 [1, 8]: < 5.00
SMILES: Cc1ccc(-n2ncc(Cl)c(Cl)c2=O)cc1Cl [compound 267070]
pIC50 [1, 6]: < 5.00

pIC50 ([1]; H2444 (EGFR WT, KRAS G12V), 12 point doubling dilution 10 uM to 5 nM, alamar blue, read-out: IC50 H2444): 5.28
SMILES: CCCCc1cccc(-n2ncc(Cl)c(Cl)c2=O)c1 [compound 267063]

SMILES: N#Cc1ccccc1-n1nc(C(=O)c2cccs2)cc(-c2nc3ccccc3[nH]2)c1=N [compound 186926]
inhibition at 10 µM ([2]; primary screening, 10 μM compound in 1% DMSO (v/v), read-out: percentage inhibition H1650): 27%
inhibition at 10 µM ([3]; primary screening, 10 μM compound in 1% DMSO (v/v), read-out: percentage inhibition H1975): 81%
inhibition at 10 µM ([4]; primary screening, 10 μM compound in 1% DMSO (v/v), read-out: percentage inhibition H2030): 2%
inhibition at 10 µM ([5]; primary screening, 10 μM compound in 1% DMSO (v/v), read-out: percentage inhibition H3255): 52%

pIC50 [1, 8]: < 5.00
SMILES: Cc1nc2cc(-n3ncc(Cl)c(Cl)c3=O)ccc2s1 [compound 267067]

SMILES: O=C(Nc1ccc(Cl)cc1)c1ccc([N+](=O)[O-])o1 [compound 98698, 5-nitro-furan-2-carboxylic acid (4-chloro-phenyl)-amide]
CONFIRMATION [%] 1975 [3, 9]: 57%
CONFIRMATION [%] 2030 [4, 9]: 98%
pIC50 ([1]; Homo sapiens, read-out: IC50 H23): 6.22
pIC50 ([1]; Homo sapiens, read-out: IC50 H1118): 6.28
pIC50 ([1]; Homo sapiens, read-out: IC50 HPL1D): < 5.00
pIC50 ([1]; Homo sapiens, read-out: IC50 PC9): 5.80

pIC50 ([1]; Homo sapiens, NCI-H820, H820 (EGFR T790M/DelE746-A750, KRAS WT), 12 point doubling dilution 10 uM to 5 nM, alamar blue, read-out: IC50 H820): 6.39
pIC50 [1, 7]: 7.10
SMILES: O=c1c(Cl)c(Cl)cnn1-c1ccccn1 [compound 267090]

pIC50 [1, 8]: 5.82
SMILES: CCc1cccc(-n2ncc(Cl)c(Cl)c2=O)c1 [compound 267062]

SMILES: O=C(Nc1ccc(NC(=O)c2ccco2)c(Cl)c1)c1ccccc1 [compound 76839]
inhibition at 10 µM ([2]; percentage inhibition, H1650, screening concentration of 10 μM compound in 1% DMSO (v/v), read-out: R1650 PRIMARY HTS [%]): 20%
inhibition at 10 µM ([3]; percentage inhibition, H1975, screening concentration of 10 μM compound in 1% DMSO (v/v), read-out: R1975 PRIMARY HTS [%]): 3%
inhibition at 10 µM ([4]; percentage inhibition, H2030, screening concentration of 10 μM compound in 1% DMSO (v/v), read-out: H2030 PRIMARY HTS [%]): -6%
inhibition at 10 µM ([5]; percentage inhibition, H3255, screening concentration of 10 μM compound in 1% DMSO (v/v), read-out: H3255 PRIMARY HTS [%]): 2%

SMILES: Cc1cccc(NC(=O)c2ccc([N+](=O)[O-])o2)c1 [compound 71762]
pIC50 [1, 6]: < 5.00
